Reference: patent US10125095B2, “Abscisic acid derivative” (NATIONAL UNIVERSITY CORPORATION SHIZUOKA UNIVERSITY, priority 2014, dated 2018)

Columns and labels:
[1] = system: seeds of thale cress (Arabidopsis thaliana, Col-0); experiment: Thale cress seed germination test; type: in vivo
Protocol: Seeds of thale cress (Arabidopsis thaliana, Col-0) were immersed in 500 μL of an aqueous solution of 70% ethanol for 30 minutes, subsequently in 500 μL of a 100% ethanol solution for 1 minute, washed five times in 1 mL of distilled water, then immersed in distilled water and, in a dark place, vernalized at 4° C. for 3 days. A solution of the sample in methanol was put in a 1.5 mL-microtube, and methanol was removed therefrom under reduced pressure. An aqueous solution of 0.5% agar (containing ½ MS medium inorganic salts) at 70° C. was added thereto and stirred, and subsequently the obtained mixture was placed in a 96-well plate to prepare the medium containing the sample. All samples were prepared so as to have a concentration of 3 μM of the compound in Examples 1 to 9 and Comparative Example 1. Further, when ABA is applied, the ABA concentration was adjusted to 0.3 μM. 20 to 30 vernalized seeds of thale cress were planted in each well and cultured at 22° C. under continuous light to monitor the number of seeds germinated over time. The germination rate was calculated by the following formula (1). Note that those cultured in medium prepared using methanol in the same manner were used as controls. […] Germination rate (%)=Number of seeds germinated/Number of seeds planted×100 (1)
The same test was carried out as in Test Example 1 with the concentrations of the compound of Example 1 for treatment varying from 0.3 μM to 30 μM.
Similarly, the same test was carried out with the concentrations of the compound of Example 2 for treatment varying from 0.3 μM to 30 μM.
The same test was carried out as in Test Example 2 with the concentrations of the compounds for treatment varying from 0.3 μM to 3 μM to compare the recovery effects on seed germination rate of the compound of Example 1 and the compound of Comparative Example 1.

[2] = biological target: T1, PYR1 (Arabidopsis thaliana, UniProt O49686); experiment: Protein dephosphorylation enzyme activity test, PYR1; type: biochemical, thale cress; details: control = 100%
T1 construct: 6xHis (N); made in house; host or cells: Escherichia coli BL21-codonplus(DE3)-RIPL (PYL); BL21(DE3)pLysS (HAB1)
T1 sequence (O49686 1-191): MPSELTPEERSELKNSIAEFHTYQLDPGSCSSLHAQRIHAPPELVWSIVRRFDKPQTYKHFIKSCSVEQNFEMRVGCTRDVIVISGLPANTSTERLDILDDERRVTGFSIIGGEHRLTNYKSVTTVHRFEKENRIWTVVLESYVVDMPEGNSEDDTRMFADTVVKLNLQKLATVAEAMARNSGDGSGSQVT
Protocol: A plasmid (pGex-2T-GST-HAB1 or pET28-6×His-PYL) encoded with PYR/PYL/RCAR proteins (PYL, abscisic acid receptor) or protein dephosphorylation enzyme HAB1 of thale cress was transformed to Escherichia coli (HAB1:BL21(DE3)pLysS, PYL:BL21-codonplus(DE3)-RIPL). Isopropyl-β-thiogalactopyranoside was added to the culture broth, which had been subjected to pre-culture (30° C., 180 rpm, 15 hours) and main culture (30° C., 180 rpm, 4 hours), and the protein-expressed (16° C., 150 rpm, 18 hours) crude enzyme solution was purified using FPLC thereby preparing the recombined PYL (PYR1, PYL1-6, PYL8-10) and HAB1. β-Mercaptoethanol, a manganese chloride aqueous solution, HAB1, PYL, a solution of the sample in dimethylsulfoxide and ultrapure water were sequentially added to a 96-well plate, allowed to stand at 22° C. for 30 minutes. Subsequently p-nitrophenylphosphate, which is the artificial substrate of HAB1, was added thereto to start the reaction, and the plate was placed in a microplate reader (TECAN, Infinite™ N200 NanoQuant). The absorbance at 405 nm due to p-nitrophenol, which is the hydrolysate of p-nitrophenylphosphate, was measured 3 minutes later from the reaction initiation, and HAB1 activity was calculated by the following formula (2). Note that the fraction to which only dimethylsulfoxide was added was considered to be the control and the activity thereof was defined as 100%. […] HAB1 specific activity (%)=Absorbance when sample was added/Absorbance of control×100 (2)

[3] = biological target: T2, recombined PYL5 (Arabidopsis thaliana, UniProt Q9FLB1); experiment: Bonding affinity measurement using an isothermal titration calorimeter; type: binding, thale cress; details: ITC, 20° C., sodium phosphate buffer
T2 construct: 6xHis (N); made in house; host or cells: Escherichia coli BL21-codonplus(DE3)-RIPL
T2 sequence (Q9FLB1 1-203): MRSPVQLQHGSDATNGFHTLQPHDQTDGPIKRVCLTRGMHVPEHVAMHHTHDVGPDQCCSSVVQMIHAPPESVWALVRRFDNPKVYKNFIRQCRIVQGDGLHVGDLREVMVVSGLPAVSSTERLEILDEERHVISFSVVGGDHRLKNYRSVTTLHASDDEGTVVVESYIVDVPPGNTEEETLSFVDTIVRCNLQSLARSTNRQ
Protocol: A sodium phosphate buffer solution of a recombined PYL5 was prepared in the same procedure as in Test Example 5, and put in a reaction cell of an isothermal titration calorimeter (GE Healthcare, MicroCal iTC200), and a sodium phosphate buffer solution of the compound of Example 1 was put in the syringe. Then, the calorimeter was set to 20° C. and the measurement was carded out. The same measurement as above was also carried out for the compounds of Examples 7 to 9.

[4] = 3 μM compound co-applied with 0.3 μM ABA

Structure (SMILES)	Germination rate (%) 24 Hours later [1, 4]	Germination rate (%) 36 Hours later [1, 4]	Germination rate (%) 48 Hours later [1, 4]	Germination rate (%) 60 Hours later [1, 4]	Germination rate (%) 24 Hours later ([1]; compound alone, 3 μM)	Germination rate (%) 36 Hours later ([1]; compound alone, 3 μM)	Germination rate (%) 48 Hours later ([1]; compound alone, 3 μM)	Germination rate (%) 60 Hours later ([1]; compound alone, 3 μM)	HAB1 Specific activity (%) PYR1 ([2]; ABA + compound)	HAB1 Specific activity (%) PYR1 ([2]; sample alone)	Kd [3]	ΔG [3]	ΔH [3]	−TΔS [3]
C#CCO[C@@H]1C=C(C)[C@](O)(/C=C/C(C)=C\C(=O)O)C(C)(C)C1 [Example 3, (2Z,4E)-5-((1S,4S)-1-hydroxy-2,6,6-trimethyl-4-(prop-2-yn-1-yloxy)cyclohex-2-en-1-yl)-3-methylpenta-2,4-dienoic acid]	0%	6.9%	20.7%	48.3%	0%	13.3%	60%	71.1%	–	–	–	–	–	–
CC1=C[C@@H](OCC#Cc2ccc(C(F)(F)F)cc2)CC(C)(C)[C@@]1(O)/C=C/C(C)=C\C(=O)O [Example 4, (2Z,4E)-5-((1S,4S)-1-hydroxy-2,6,6-trimethyl-4-((3-(4-trifluoromethyl)phenylprop-2-yn-1-yl)oxy)cyclohex-2-en-1-yl)-3-methylpenta-2,4-dienoic acid]	0%	29%	58%	100%	8%	33%	75%	92%	36.7%	55.4%	–	–	–	–
COc1ccc(C#CCO[C@@H]2C=C(C)[C@](O)(/C=C/C(C)=C\C(=O)O)C(C)(C)C2)cc1 [Example 5, (2Z,4E)-5-((1S,4S)-1-hydroxy-2,6,6-trimethyl-4-((3-(4-methoxy)phenylprop-2-yn-1-yl)oxy)cyclohex-2-en-1-yl)-3-methylpenta-2,4-dienoic acid]	0%	30%	67%	100%	5%	37%	79%	95%	50.5%	92.3%	–	–	–	–
CC(=O)c1ccc(C#CCO[C@@H]2C=C(C)[C@](O)(/C=C/C(C)=C\C(=O)O)C(C)(C)C2)cc1 [Example 6, (2Z,4E)-5-((1S,4S)-1-hydroxy-2,6,6-trimethyl-4-((3-(4-acetyl)phenylprop-2-yn-1-yl)oxy)cyclohex-2-en-1-yl)-3-methylpenta-2,4-dienoic acid]	7%	28%	52%	72%	0%	17%	75%	92%	41.5%	87.9%	–	–	–	–
CC1=C[C@@H](OCC#Cc2ccc(S(F)(F)(F)(F)F)cc2)CC(C)(C)[C@@]1(O)/C=C/C(C)=C\C(=O)O [Example 8]	0%	0%	23%	89%	0%	60%	100%	100%	62.9%	105%	0.18 ± 0.01 µM	-9.0 ± 0.1 kcal/mol	-4.9 ± 0.1 kcal/mol	-4.1 kcal/mol
CC1=C[C@@H](OCCCc2ccccc2)CC(C)(C)[C@@]1(O)/C=C/C(C)=C\C(=O)O [Example 9]	0%	60%	100%	100%	1%	88%	100%	100%	32.1%	87.8%	0.36 ± 0.07 µM	-8.6 ± 0.1 kcal/mol	-6.7 ± 0.1 kcal/mol	-2.0 kcal/mol
